Measured values reported in ChEMBL document CHEMBL1133928, “Design and synthesis of glycolic and mandelic acid derivatives as factor Xa inhibitors” (Bioorg Med Chem Lett, 2001).

Key:
Coagulation factor X = Coagulation factor X (Homo sapiens, UniProt P00742); assay: In vitro inhibitory activity against coagulation factor X
Oryctolagus cuniculus [1] = assay: Antithrombotic effect (Inhibition of thrombus formation) in a rabbit deep vein thrombosis model at 1.1 uM plasma concentration following iv administration; assay type: functional
Serine protease 1 = Serine protease 1 (Homo sapiens, UniProt P07477); assay: In vitro inhibitory activity against trypsin
[2] = Oral bioavailability in rat; assay type: ADME, organism-based; conditions: in vivo
Prothrombin = Prothrombin (Homo sapiens, UniProt P00734); assay: In vitro inhibitory activity against thrombin
Oryctolagus cuniculus [3] = assay: Antithrombotic effect (Inhibition of thrombus formation) in a rabbit deep vein thrombosis model at 0.132 uM plasma concentration following iv administration; assay type: functional

Sequence of Coagulation factor X (P00742 41-179 limits assumed): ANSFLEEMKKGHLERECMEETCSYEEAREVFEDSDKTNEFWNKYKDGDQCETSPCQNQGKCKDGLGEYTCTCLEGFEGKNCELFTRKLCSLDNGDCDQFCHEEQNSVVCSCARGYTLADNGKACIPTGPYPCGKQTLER
Sequence of Coagulation factor X (P00742 235-488 limits assumed): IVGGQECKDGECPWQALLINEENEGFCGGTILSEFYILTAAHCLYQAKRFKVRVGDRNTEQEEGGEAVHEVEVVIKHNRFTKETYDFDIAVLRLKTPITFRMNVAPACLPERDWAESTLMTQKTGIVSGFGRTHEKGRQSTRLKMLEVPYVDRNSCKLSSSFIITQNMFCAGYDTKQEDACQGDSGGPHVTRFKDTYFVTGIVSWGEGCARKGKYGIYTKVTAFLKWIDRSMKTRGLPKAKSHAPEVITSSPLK
Sequence of Serine protease 1 (P07477 whole entry): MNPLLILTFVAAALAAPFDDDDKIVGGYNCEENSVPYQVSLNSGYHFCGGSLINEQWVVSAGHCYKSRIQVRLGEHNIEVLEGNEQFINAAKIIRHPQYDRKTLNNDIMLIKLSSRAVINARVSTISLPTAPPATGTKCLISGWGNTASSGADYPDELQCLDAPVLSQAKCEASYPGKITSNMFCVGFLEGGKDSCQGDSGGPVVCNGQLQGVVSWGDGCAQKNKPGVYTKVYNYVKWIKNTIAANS

Structure (SMILES) | IC50 (Coagulation factor X) [nM] | IC50 (Serine protease 1) [µM] | bioavailability [2] [%] | IC50 (Prothrombin) [µM] | Inhibition (Oryctolagus cuniculus [1]) [%] | Inhibition (Oryctolagus cuniculus [3]) [%]
N=C(N)c1cccc(OC(C(=O)Nc2ccc(-c3ccccc3S(N)(=O)=O)cc2F)c2ccccc2)c1 (centres undefined) | – | 9.82 | – | > 10 | – | –
N=C(N)c1cccc(OC(C(=O)Nc2ccc(-n3ccc(C(F)(F)F)n3)cc2)c2ccccc2)c1 (centres undefined) | 170 | > 10 | – | > 10 | – | –
N=C(N)c1cccc(OC(C(=O)Nc2ccc(-n3cnc(Cl)c3Cl)cc2)c2ccccc2)c1 (centres undefined) | 14 | 5.33 | – | – | – | –
N=C(N)c1cccc(OCCC(=O)Nc2ccc(-c3ccccc3S(N)(=O)=O)cc2)c1 | 6.4 | 2.57 | – | > 10 | – | –
CN1CCN(C(=O)c2ccc(NC(=O)COc3cccc(C(=N)N)c3)cc2)CC1 | > 10000 | > 10 | – | > 10 | – | –
N=C(N)c1cccc(OCC(=O)Nc2ccc(C(=O)N3CCOCC3)cc2)c1 | 1120 | > 10 | – | > 10 | – | –
N=C(N)c1cccc(OCC(=O)Nc2ccc(C(=O)N3CCCCCC3)cc2)c1 | 1190 | > 10 | – | > 10 | – | –
N=C(N)c1cccc(OCC(=O)Nc2ccc(C(=O)N3CCCC3)cc2)c1 | 66 | 2.7 | – | > 10 | – | –
N=C(N)c1cccc(OC(C(=O)Nc2cc(Cl)c(-n3cccc3)cc2Cl)c2ccccc2)c1 (centres undefined) | 93 | 8.78 | – | 4.09 | – | –
N=C(N)c1cccc(OC(C(=O)Nc2ccc(N3CCOCC3)c(F)c2)c2ccccc2)c1 (centres undefined) | 4.4 | – | – | – | – | –
N=C(N)c1cccc(OC(C(=O)Nc2ccc(-c3ccccc3S(N)(=O)=O)cc2Br)c2ccccc2)c1 (centres undefined) | 3.2 | 4 | – | 8.64 | – | –
N=C(N)c1cccc(OCC(=O)Nc2ccc(C(=O)N3CCCCC3)cc2)c1 | – | > 10 | – | > 10 | – | –
N=C(N)c1cccc(OCC(=O)Nc2ccc(C(=O)N3CCCC3C(=O)O)cc2)c1 (centres undefined) | > 10000 | > 10 | – | > 10 | – | –
N=C(N)c1cccc(OCC(=O)Nc2ccc(-c3ccccc3S(N)(=O)=O)cc2)c1 | 21 | 3.37 | – | > 10 | – | –
CC(C)(C)OC(=O)C1CCCN1C(=O)c1ccc(NC(=O)COc2cccc(C(=N)N)c2)cc1 (centres undefined) | 2930 | 6.64 | – | > 10 | – | –

Now from value to molecule, other results behind:

IC50 (Coagulation factor X) [nM] | IC50 (Serine protease 1) [µM] | bioavailability [2] [%] | IC50 (Prothrombin) [µM] | Structure (SMILES) | Inhibition (Oryctolagus cuniculus [1]) [%] | Inhibition (Oryctolagus cuniculus [3]) [%]
0.18 | 0.174 | 5 | – | N=C(N)c1cccc(OC(C(=O)Nc2ccc(C(=O)N3CCCC3)cc2)c2ccccc2)c1 (centres undefined) | 81 | –
2.2 | 2.29 | – | > 10 | N=C(N)c1ccc(O)c(OCC(=O)Nc2ccc(-c3ccccc3S(N)(=O)=O)cc2)c1 | – | –
0.55 | 1.25 | 5 | > 10 | N=C(N)c1cccc(OC(C(=O)Nc2ccc(-c3ccccc3S(N)(=O)=O)cc2)c2ccccc2)c1 (centres undefined) | – | 56
227 | 2.05 | – | > 10 | N=C(N)c1cccc(OCC(=O)Nc2ccc(C(=O)N3CCC3)cc2)c1 | – | –
0.99 | 0.521 | – | > 10 | N=C(N)c1cccc(OC(C(=O)Nc2ccc(C(=O)N3CCCC3)cc2Br)c2ccccc2)c1 (centres undefined) | – | –
6.3 | 0.875 | – | > 10 | N=C(N)c1cccc(OCC(=O)Nc2ccc(C(=O)N3CC=CC3)cc2)c1 | – | –
0.7 | 0.283 | – | > 10 | N=C(N)c1ccc(O)c(OCC(=O)Nc2ccc(C(=O)N3CCCC3)cc2)c1 | – | –
